In patent US4672036A, “Pure cultures of Kibdelsporangium aridum Shearer gen. nov., sp. nov. ATCC 39323 and mutants thereof” (SmithKline Beckman Corporation, priority 1985, dated 1987):
≈ marks a conversion by molar mass, not a printed value. Where “and” joins values, the source holds several entries; their conditions need not be identical. Identical values can stand only once. Like-named read-outs stand apart in the source and are kept apart here.

Assays:
[1] = system: Staph. aureus SK & F 1761; type: cell-based; settings: Staphylococcus aureus
[2] = system: Staph. aureus SK & F 2677; type: cell-based; settings: Staphylococcus aureus
Staph. aureus HH127 = type: cell-based; settings: Staphylococcus aureus
[3] = system: Kleb. pneumoniae 4200 (SK & F 798); type: cell-based; settings: Klebsiella pneumoniae
[4] = system: Staph. aureus SK & F 2620; type: cell-based; settings: Staphylococcus aureus
[5] = system: B. thetaiotamicron SK & F 3089; type: cell-based
[6] = system: Fusobacterium nucleatum ATCC 25586; type: cell-based; settings: Fusobacterium nucleatum, ATCC25586
[7] = system: C. perfringens ATCC 19408; test: microbe, parasite or virus in culture; settings: Clostridium perfringens, ATCC19408
Swine in vitro model = test: swine in vitro model (growth promotant activity)
[8] = system: Staph. aureus SK & F 2594; type: cell-based; settings: Staphylococcus aureus
[9] = system: Staph. aureus SK & F 2621; type: cell-based; settings: Staphylococcus aureus
[10] = system: Enterobacter cloacae HH31254; type: cell-based; settings: Enterobacter cloacae, HH31254
[11] = system: Strep. faecalis SK & F 657; type: cell-based; settings: Enterococcus faecalis
[12] = system: Staph. aureus 209P-Mutant; test: microbe, parasite or virus in culture; type: cell-based; settings: Staphylococcus aureus, 209P
[13] = system: Staph. aureus SK & F 2597; type: cell-based; settings: Staphylococcus aureus
[14] = system: Staph. aureus SK & F 2616; type: cell-based; settings: Staphylococcus aureus
[15] = system: Staph. epidermidis SK & F 2683; type: cell-based; settings: Staphylococcus epidermidis
[16] = system: Staph. aureus SK & F 2589; type: cell-based; settings: Staphylococcus aureus
[17] = system: Staph. aureus SK & F 2595; type: cell-based; settings: Staphylococcus aureus
[18] = system: Staph. aureus SK & F 2615; type: cell-based; settings: Staphylococcus aureus
K. aridum = test: susceptibility of K. aridum to antibiotics, disk diffusion method; type: cell-based, Kibdelosporangium aridum; settings: disk 30 μg
Experimental: Susceptibility of K. aridum to antibiotics was examined by placing BBL susceptibility disks on nutrient agar plates seeded with K. aridum as an overlay. Diameters of the zones of inhibition were measured after incubation for one week at 28° C.
Chlortetracycline ([…]) produced 18 mm zones of inhibition; tetracycline (5 μg) 11-12 mm zones; rifampin (5 μg) 11-15 mm zones; novobiocin (5 μg) 27-28 mm zones. All zones of inhibition contained at least a few resistant colonies.

[19] = system: Staph. aureus SK & F 2613; type: cell-based; settings: Staphylococcus aureus
Staph. aureus SK & F 675 = type: cell-based; settings: Staphylococcus aureus

CN[C@H](CC(C)C)C(=O)N[C@H]1C(=O)N[C@@H](CC(N)=O)C(=O)N[C@H]2C(=O)N[C@H]3C(=O)N[C@H](C(=O)N[C@H](C(=O)O)c4cc(O)cc(O)c4-c4cc3ccc4O)[C@H](O)c3ccc(c(Cl)c3)Oc3cc2cc(c3O[C@@H]2O[C@H](CO)[C@@H](O)[C@H](O)[C@H]2O[C@H]2C[C@](C)(N)[C@H](O)[C@H](C)O2)Oc2ccc(cc2Cl)[C@H]1O [Vancomycin, reference compound]
MIC [1]: 1.6 µg/mL (≈ 1.1 µM) | MIC [2]: 1.6 µg/mL (≈ 1.1 µM) | MIC (Staph. aureus HH127; HH127, Table A): 1.6 µg/mL (≈ 1.1 µM) | MIC (Staph. aureus HH127; HH127, Table B, Methicillin Sensitive): 1.6 µg/mL (≈ 1.1 µM) | MIC (Staph. aureus HH127; HH127, Table E): 3.1 µg/mL (≈ 2.14 µM) | MIC [3]: > 100 µg/mL | MIC [4]: 3.1 µg/mL (≈ 2.14 µM) | MIC [5]: 32 µg/mL (≈ 22.1 µM) | MIC [6]: 32 µg/mL (≈ 22.1 µM) | MIC [7]: 1 µg/mL (≈ 0.69 µM) | GLU (glucose) (Swine in vitro model): 190 % Control and 189 % Control | LAC (L-lactic acid) (Swine in vitro model): 64 % Control and 59 % Control | LYS (lysine) (Swine in vitro model): 48 % Control and 42 % Control and 83 % Control | MIC [8]: 1.6 µg/mL (≈ 1.1 µM) | MIC [9]: 1.6 µg/mL (≈ 1.1 µM) | MIC [10]: > 100 µg/mL | MIC [11]: 3.1 µg/mL (≈ 2.14 µM) | MIC [12]: > 100 µg/mL | MIC [13]: 3.1 µg/mL (≈ 2.14 µM) | MIC [14]: 0.8 µg/mL (≈ 0.552 µM) | MIC [15]: 6.3 µg/mL (≈ 4.35 µM) | MIC [16]: 1.6 µg/mL (≈ 1.1 µM) | MIC [17]: ~1.6 µg/mL (≈ 1.1 µM) | MIC [18]: 3.1 µg/mL (≈ 2.14 µM) | susceptibility of K. aridum (K. aridum): resistant | MIC [19]: 1.6 µg/mL (≈ 1.1 µM) | MIC (Staph. aureus SK & F 675; Table C, Methicillin Resistant): 1.6 µg/mL (≈ 1.1 µM) | MIC (Staph. aureus SK & F 675; Table E): 3.1 µg/mL (≈ 2.14 µM)
